Measurements: patent US20250102414A1, “A MICROFLUIDIC DEVICE FOR DETECTING AND CHARACTERIZING AT LEAST ONE ANALYTE, FOR EXAMPLE A CELL, IN A SAMPLE FLUID” (TECHNISCHE UNIVERSITEIT EINDHOVEN, priority 2022, published 2025)

How the values were obtained:
MCF-7 cells [1] = experiment: Commercially available apoptosis detection kit for fluorescent imaging (validation); format: cell-based; settings: 1 μM STS, 3 days
Method: (§1) In parallel, a control sample was also cultured under the same conditions without drug exposure was also analyzed for comparison. […] For the control sample, only one cluster, which were viable cells, were identified with 97% ratio for the total number of events. For the treated sample, 3 clusters were identified for viable, early apoptotic, and late apoptotic states with 44%, 19%, and 37% ratios, respectively. For validation, a commercially available apoptosis detection kit for fluorescent imaging were used and it provided the ratios of 47% viable and 53% apoptotic for the treated sample. A high-resolution drug response analysis were performed in a fully label free manner while keeping the cells intact, where the imaging required sample preparation and fixation of the cells, which kills the cells and the possibility of further functional analysis options.

MCF-7 cells [2] = experiment: Label-free drug response analysis by electrical impedance (opacity) with the microfluidic device; format: cell-based; settings: 1 μM STS, cultured 3 days under drug exposure, opacity clusters
Method: FIGS. 14a and 14b show the results of a drug response analysis for MCF-7 cells. As a first step, the viability of the cells was measured before and after analyzing these cells using one of the versions of the devices described in the present disclosure. […] Then, STS (with 1 μM concentration) were added to this well and the cells were cultured for another 3 days under the exposure of the drug.
as §1
Accordingly, embodiments of the present disclosure are capable of achieving measurement results when the electric field generating unit in the embodiments of the present disclosure delivers a voltage drop between electrodes of the present disclosure within the range of 0.1 to 0.5 V and, preferably, within the range of 0.2 to 0.4 V. The results shown in FIGS. 12, 13 and 14 were obtained with voltage values varying between 0.2-0.4 V for frequencies between 1-400 MHz with the maximum reachable voltage drop of 0.12 V, which is below the electroporation limit. […] These to be determined based on the sample, used electrolyte (medium conductivity), peripheral electronics (analyzers, power sources, etc.), size of the measurement volume, and the requirements of the analysis.

## CN[C@@H]1C[C@H]2O[C@@](C)([C@@H]1OC)n1c3ccccc3c3c4c(c5c6ccccc6n2c5c31)C(=O)NC4 [STS]
MCF-7 cells [1]
  ratio apoptotic: 53%
  ratio viable: 47%
MCF-7 cells [2]
  ratio of early apoptotic cluster to total number of events: 19%
  ratio of late apoptotic cluster to total number of events: 37%
  ratio of viable cluster to total number of events: 44%
